{"source": "patent US20160324149A1", "about": "“ADJUVANTS FOR PLANT GROWTH REGULATORS” (VERDESIAN LIFE SCINCES, LLC, priority 2014, published 2016)", "system": "soybean seedlings", "assay": "Soybean seedling spray test, dry weight one week later", "type": "in vivo", "conditions": "for Mean Plant Dry Wt. / Total Dry Wt.: sprayed at 20 gallons per acre, harvested one week later", "protocol": "In this test, soybean seedlings at true leaf emergence were sprayed with a series of aqueous test solutions at a rate of 20 gallons per acre. In those solutions including AVAIL®, use was made of AVAIL® for liquid phosphate fertilizers. The beans were then harvested one week later and were counted, dried, and weighed, and average weight per plant was determined."}
{"smiles": "C=C1C[C@]23C[C@@]1(O)CC[C@H]2[C@@]12C=C[C@H](O)[C@@](C)(C(=O)O1)[C@H]2[C@@H]3C(=O)O", "note": "[gibberellic acid]", "values": [{"measurement": "Mean plant dry weight as gibberellic acid concentration increased", "setting": "50-500 ppm", "value": "the mean plant dry weight also increased"}, {"measurement": "Mean Plant Dry Wt.", "setting": "50 ppm gibberellic acid", "value": 1.594, "unit": "g"}, {"measurement": "Total Dry Wt.", "setting": "50 ppm gibberellic acid", "value": 17.53, "unit": "g"}, {"measurement": "Mean Plant Dry Wt.", "setting": "100 ppm gibberellic acid", "value": 1.808, "unit": "g"}, {"measurement": "Total Dry Wt.", "setting": "100 ppm gibberellic acid", "value": 18.08, "unit": "g"}, {"measurement": "Mean Plant Dry Wt.", "setting": "250 ppm gibberellic acid", "value": 1.718, "unit": "g"}, {"measurement": "Total Dry Wt.", "setting": "250 ppm gibberellic acid", "value": 20.61, "unit": "g"}, {"measurement": "Mean Plant Dry Wt.", "setting": "500 ppm gibberellic acid", "value": 2.280, "unit": "g"}, {"measurement": "Total Dry Wt.", "setting": "500 ppm gibberellic acid", "value": 22.80, "unit": "g"}]}
